# Reference: PubChem BioAssay (NCI)
#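 Protocol summary: plate cells (96-well), add compound at 5 concentrations, incubate 48 h, interpolate endpoints linearly. TGI marks complete inhibition of growth.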
# What was measured:
# Assay in all cases: growth of human tumour cells (NCI), 48 h
# SR leukemia = system: SR leukemia
# UACC-257 melanoma = system: UACC-257 melanoma
# MALME-3M melanoma = system: MALME-3M melanoma
# SF-539 CNS = system: SF-539 CNS
# 786-0 renal = system: 786-0 renal
# SF-295 CNS = system: SF-295 CNS
# PC-3 prostate = system: PC-3 prostate
# SK-MEL-2 melanoma = system: SK-MEL-2 melanoma
# LOX IMVI melanoma = system: LOX IMVI melanoma
# A549 NSCLC = system: A549 NSCLC
# SK-MEL-28 melanoma = system: SK-MEL-28 melanoma
# U251 CNS = system: U251 CNS
# SN12C renal = system: SN12C renal
# OVCAR-5 ovarian = system: OVCAR-5 ovarian
# COLO 205 colon = system: COLO 205 colon
# OVCAR-8 ovarian = system: OVCAR-8 ovarian
# CCRF-CEM leukemia = system: CCRF-CEM leukemia
# SF-268 CNS = system: SF-268 CNS
# MOLT-4 leukemia = system: MOLT-4 leukemia
# DU-145 prostate = system: DU-145 prostate
# HCT-116 colon = system: HCT-116 colon
# OVCAR-4 ovarian = system: OVCAR-4 ovarian
# HCC-2998 colon = system: HCC-2998 colon
# T-47D breast = system: T-47D breast
# TK-10 renal = system: TK-10 renal
# OVCAR-3 ovarian = system: OVCAR-3 ovarian
# UACC-62 melanoma = system: UACC-62 melanoma
# SK-MEL-5 melanoma = system: SK-MEL-5 melanoma
# SK-OV-3 ovarian = system: SK-OV-3 ovarian
# RXF 393 renal = system: RXF 393 renal
# HOP-62 NSCLC = system: HOP-62 NSCLC
# MDA-N = system: MDA-N
# NCI-H226 lung = system: NCI-H226 lung
# MCF7 breast = system: MCF7 breast
# MDA-MB-231 breast = system: MDA-MB-231 breast
# HT29 colon = system: HT29 colon
# RPMI-8226 leukemia = system: RPMI-8226 leukemia
# K-562 leukemia = system: K-562 leukemia
# NCI-H23 lung = system: NCI-H23 lung
# BT-549 breast = system: BT-549 breast
# CAKI-1 renal = system: CAKI-1 renal
# NCI-H460 lung = system: NCI-H460 lung
# IGROV1 ovarian = system: IGROV1 ovarian
# SW-620 colon = system: SW-620 colon
# EKVX NSCLC = system: EKVX NSCLC
# SNB-75 CNS = system: SNB-75 CNS
# HCT-15 colon = system: HCT-15 colon
# KM12 colon = system: KM12 colon
# M14 melanoma = system: M14 melanoma
# NCI-H522 lung = system: NCI-H522 lung
# NCI/ADR-RES ovarian = system: NCI/ADR-RES ovarian
# MDA-MB-435 = system: MDA-MB-435
# HS 578T breast = system: HS 578T breast
# UO-31 renal = system: UO-31 renal
# SNB-19 CNS = system: SNB-19 CNS
# ACHN renal = system: ACHN renal
# HOP-92 NSCLC = system: HOP-92 NSCLC
# HL-60(TB) leukemia = system: HL-60(TB) leukemia
smiles,measurement,setting,value
S=C(Nc1ccc(Cl)cc1)SC1CCCCC1,TGI,SR leukemia,> 100 µM
same,TGI,UACC-257 melanoma,76.5 µM
same,TGI,MALME-3M melanoma,85.9 µM
same,TGI,SF-539 CNS,61.3 µM
same,TGI,786-0 renal,> 100 µM
same,TGI,SF-295 CNS,70.5 µM
same,TGI,PC-3 prostate,> 100 µM
same,TGI,SK-MEL-2 melanoma,39.9 µM
same,TGI,LOX IMVI melanoma,42.8 µM
same,TGI,A549 NSCLC,56.4 µM
same,TGI,SK-MEL-28 melanoma,49.6 µM
same,TGI,U251 CNS,> 100 µM
same,TGI,SN12C renal,51.3 µM
same,TGI,OVCAR-5 ovarian,62 µM
same,TGI,COLO 205 colon,> 100 µM
same,TGI,OVCAR-8 ovarian,> 100 µM
same,TGI,CCRF-CEM leukemia,> 100 µM
same,TGI,SF-268 CNS,84.9 µM
same,TGI,MOLT-4 leukemia,92.4 µM
same,TGI,DU-145 prostate,> 100 µM
same,TGI,HCT-116 colon,70.8 µM
same,TGI,OVCAR-4 ovarian,> 100 µM
same,TGI,HCC-2998 colon,39.3 µM
same,TGI,T-47D breast,> 100 µM
same,TGI,TK-10 renal,> 100 µM
same,TGI,OVCAR-3 ovarian,56.9 µM
same,TGI,UACC-62 melanoma,28.8 µM
same,TGI,SK-MEL-5 melanoma,30.5 µM
same,TGI,SK-OV-3 ovarian,94.9 µM
same,TGI,RXF 393 renal,58.9 µM
same,TGI,HOP-62 NSCLC,87.5 µM
same,TGI,MDA-N,47 µM
same,TGI,NCI-H226 lung,> 100 µM
same,TGI,MCF7 breast,40.6 µM
same,TGI,MDA-MB-231 breast,> 100 µM
same,TGI,HT29 colon,50.9 µM
same,TGI,RPMI-8226 leukemia,> 100 µM
same,TGI,K-562 leukemia,> 100 µM
same,TGI,NCI-H23 lung,45.4 µM
same,TGI,BT-549 breast,> 100 µM
same,TGI,CAKI-1 renal,> 100 µM
same,TGI,NCI-H460 lung,86.7 µM
same,TGI,IGROV1 ovarian,54.2 µM
same,TGI,SW-620 colon,> 100 µM
same,TGI,EKVX NSCLC,47 µM
same,TGI,SNB-75 CNS,74.4 µM
same,TGI,HCT-15 colon,69.4 µM
same,TGI,KM12 colon,95.7 µM
same,TGI,M14 melanoma,42.7 µM
same,TGI,NCI-H522 lung,44.6 µM
same,TGI,NCI/ADR-RES ovarian,> 100 µM
same,TGI,MDA-MB-435,> 100 µM
same,TGI,HS 578T breast,> 100 µM
same,TGI,UO-31 renal,> 100 µM
same,TGI,SNB-19 CNS,53.6 µM
same,TGI,ACHN renal,36.6 µM
same,TGI,HOP-92 NSCLC,71.2 µM
Cc1ccc(O)c(-c2cc(-c3ccccc3)nc(/N=C\c3ccccc3)n2)c1,TGI,SR leukemia,> 100 µM
same,TGI,UACC-257 melanoma,> 100 µM
same,TGI,MALME-3M melanoma,> 100 µM
same,TGI,SF-539 CNS,> 100 µM
same,TGI,786-0 renal,> 100 µM
same,TGI,SF-295 CNS,> 100 µM
same,TGI,PC-3 prostate,> 100 µM
same,TGI,SK-MEL-2 melanoma,> 100 µM
same,TGI,LOX IMVI melanoma,> 100 µM
same,TGI,A549 NSCLC,> 100 µM
same,TGI,SK-MEL-28 melanoma,> 100 µM
same,TGI,U251 CNS,> 100 µM
same,TGI,SN12C renal,> 100 µM
same,TGI,OVCAR-5 ovarian,> 100 µM
same,TGI,OVCAR-8 ovarian,> 100 µM
same,TGI,CCRF-CEM leukemia,> 100 µM
same,TGI,SF-268 CNS,> 100 µM
same,TGI,MOLT-4 leukemia,> 100 µM
same,TGI,DU-145 prostate,> 100 µM
same,TGI,HCT-116 colon,> 100 µM
same,TGI,OVCAR-4 ovarian,> 100 µM
same,TGI,T-47D breast,> 100 µM
same,TGI,TK-10 renal,> 100 µM
same,TGI,OVCAR-3 ovarian,> 100 µM
same,TGI,HL-60(TB) leukemia,> 100 µM
same,TGI,UACC-62 melanoma,48.6 µM
same,TGI,SK-MEL-5 melanoma,> 100 µM
same,TGI,HOP-62 NSCLC,58.8 µM
same,TGI,MDA-N,> 100 µM
same,TGI,NCI-H226 lung,> 100 µM
same,TGI,MCF7 breast,> 100 µM
same,TGI,MDA-MB-231 breast,> 100 µM
same,TGI,HT29 colon,> 100 µM
same,TGI,K-562 leukemia,> 100 µM
same,TGI,NCI-H23 lung,81.5 µM
same,TGI,BT-549 breast,19.2 µM
same,TGI,NCI-H460 lung,> 100 µM
same,TGI,IGROV1 ovarian,44 µM
same,TGI,SW-620 colon,> 100 µM
same,TGI,EKVX NSCLC,> 100 µM
same,TGI,SNB-75 CNS,40.9 µM
same,TGI,HCT-15 colon,> 100 µM
same,TGI,KM12 colon,> 100 µM
same,TGI,M14 melanoma,> 100 µM
same,TGI,NCI-H522 lung,> 100 µM
same,TGI,NCI/ADR-RES ovarian,85.6 µM
same,TGI,MDA-MB-435,> 100 µM
same,TGI,HS 578T breast,79.8 µM
same,TGI,UO-31 renal,13.5 µM
same,TGI,SNB-19 CNS,> 100 µM
same,TGI,ACHN renal,29.8 µM
same,TGI,HOP-92 NSCLC,> 100 µM
